What was measured:
[1] = Glass transition temperature by Differential Scanning Calorimetry (DSC); type: physicochemical; settings: dry amorphous lisinopril
Procedure: Differential Scanning Calorimetry (DSC) was performed on approximately 0.5-3 mg sample, using a Mettler DSC820 instrument, according to standard methods, for example those described in Hohne et al. (1996) Differential scanning Calorimetry, Springer, Berlin.

[2] = Glass transition temperature by Thermal Mechanical Analysis (TMA); type: physicochemical; settings: heating rate 10° C./min, 30-160° C.
Procedure: The method involves compressing 140 mg of material in a punch and die (3 mm) to 2 KN. The compressed pellet was then placed on the TMA and the 1.1 mm probe placed on the top face. A heating rate of 10° C./min was used and the sample was heated from 30-160° C.

[3] = cited from earlier work

Row | glass transition temperature (Tg) by DSC [1] [°C] | glass transition temperature by TMA [2] [°C] | SMILES | effective half-life of accumulation ([3]; multiple dosing) | time to peak serum concentrations ([3]; oral administration) [h]
1 | 125 | 129 | NCCCC[C@H](NC(CCc1ccccc1)C(=O)O)C(=O)N1CCC[C@H]1C(=O)O (stereo partly drawn) [amorphous lisinopril, (S)-1-[N^2-(1-carboxy-3-phenylpropyl]-L-lysyl]-L-proline] | – | –
2 | – | – | NCCCC[C@H](NC(CCc1ccccc1)C(=O)O)C(=O)N1CCC[C@H]1C(=O)O (stereo partly drawn) [lisinopril, (S)-1-[N^2-(1-carboxy-3-phenylpropyl]-L-lysyl]-L-proline] | about 12.6 hours | ≤ 7

Reference: US6627760B1, “Amorphous compound” (AstraZeneca AB, priority 2001, dated 2003)
